# Residues, ends and D or L forms follow the SMILES beside them.
# T1: recombinant BTLA-Fc protein (B and T lymphocyte attenuator) (UniProt Q7Z6A9 31-137)
# T1 construct: B and T lymphocyte attenuator (BTLA); source: recombinant
# T1 sequence: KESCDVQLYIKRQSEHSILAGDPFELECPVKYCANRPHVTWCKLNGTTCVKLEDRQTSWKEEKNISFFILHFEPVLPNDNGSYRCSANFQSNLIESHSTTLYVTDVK
# T2: BTLA-Fc (Homo sapiens, UniProt Q7Z6A9)
# T2 construct: Fc
# T2 sequence (Q7Z6A9 31-157 limits assumed): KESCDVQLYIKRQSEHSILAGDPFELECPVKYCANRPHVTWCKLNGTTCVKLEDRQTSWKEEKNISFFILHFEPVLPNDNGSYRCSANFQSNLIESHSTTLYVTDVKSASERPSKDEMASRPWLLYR
# Target: T1, recombinant BTLA-Fc protein (B and T …)
# Experiment: SPR; Biacore T100, CM5 chip; BTLA-Fc coupled by EDC/NHS; peptides injected at 30 µL/min in PBS with 2% DMSO; static (fast dissociation) or kinetic (slow dissociation) model
# Conditions: both partners purified
row,Molecule,Kd [mM]
1,"Ac-KPACGELTGTVCF-NH2 (cysteine pairing not given here, HVEM residues 26-38 with E27P and E38F; source: synthetic peptide (SPPS, Fmoc; Jiangsu Shenlang Biotech)) [DP2 E27P E38F]",1.75
2,Ac-ESCPKCSPGYRVKEACGELTGTVCEP-NH2 (cysteine pairing not given here) [P0-E2],0.0941
3,Ac-YRVKEACGELTGTVCEP-NH2 (cysteine pairing not given here) [P0-E1],9.93
4,"Ac-ESCPKCSPGYRVKPACGELTGTVCFP-NH2 (cysteine pairing not given here, HVEM residues 14-39 with the DP2 mutations E27P and E38F; also called extended DP2 (26 aa); source: synthetic peptide (SPPS, Fmoc; Jiangsu Shenlang Biotech)) [DP2-E2]",1.46e-06
5,"Ac-YRVKPACGELTGTVCFP-NH2 (cysteine pairing not given here, HVEM residues 23-39 with the DP2 mutations E27P and E38F; also called extended DP2 (17 aa); source: synthetic peptide (SPPS, Fmoc; Jiangsu Shenlang Biotech)) [DP2-E1]",3.04

# Tested on: BTLA/HVEM binding (BTLA-Fc coated, HVEM-biotin)
# Experiment: Competitive ELISA, peptides against Biotin-HVEM for BTLA
# Conditions: 1 mg/mL peptide, 12 h at room temperature; peptides with response value under 85% of the control were selected; absorbance 630 nm
# Source text: Though computational methods provided certain guidelines for picking the mutations, they are not 100% accurate since simplified models were used, like ignoring the possible conformation changes caused by mutations. Thus, the wet-lab examination is necessary to confirm their inhibition effects. The library containing predicted peptides was synthesized by solid phase peptide synthesis (SPPS) method with Fmoc strategy. We used competitive ELISA for the screen to ensure the positive peptides selectively binds in situ on the BTLA/HVEM interface. Biotin-HVEM was used as the signal reporter. Peptides with strong binding of BTLA will compete with Biotin-HVEM and result in lower signal. A primary screen was carried out by using 1 mg/mL of each peptide and those with response value under 85% of the control were selected for further characterization (Figure 2a).
# 96-well EIA/RIA plates (High Binding, Corning Incorporated) were coated with 350 ng/well of recombinant BTLA-Fc protein in PBS (50 µL/well), incubating at 37 °C overnight until the solutions evaporate completely. Methanol was added for protein fixation and the wells were blocked with 5% BSA in PBS (200 µL/well). The peptides in DMSO were diluted into 1 mg/mL in PBS (50 µL/well) and incubated 12 h at room temperature. Wells were washed six times with PBST (phosphate buffer saline with 0.1% Tween-20, pH 7.4). Different concentrations of recombinant HVEM-biotin protein (50 µL/well) was added and incubated for 2 h at room temperature. Wells were washed six times with PBS. Horseradish peroxidase (HRP) labeled Streptavidin was finally added at a 1/5000 dilution in PBS and incubated for 2 h at room temperature. 3, 3′, 5, 5′,-tetramethylbenzidine (TMB, Beyotime) was used for color development. The absorbance was read at 630 nm using Microplate Reader. Statistical analysis of the results was performed using GraphPad Prism 7 software.
row,Molecule,Inhibition in preliminary competitive ELISA screen
1,CC(=O)N[C@@H](CCCCN)C(=O)N1CCC[C@H]1C(=O)N[C@@H](C)C(=O)N[C@@H](CS)C(=O)NCC(=O)N[C@@H](CCC(=O)O)C(=O)N[C@@H](CC(C)C)C(=O)N[C@H](C(=O)NCC(=O)N[C@H](C(=O)N[C@H](C(=O)N[C@@H](CS)C(=O)N[C@@H](Cc1ccccc1)C(N)=O)C(C)C)[C@@H](C)O)[C@@H](C)O [DP2] (Ac-KPACGELTGTVCF-NH2),showed inhibition
2,"Ac-KEACGDLTGTVCE-NH2 [SP6, single mutant E31D of HVEM (26–38)]",showed inhibition
3,"Ac-KEACGELPGTVCE-NH2 [SP7, single mutant T33P of HVEM (26–38)]",showed inhibition
4,"Ac-KKACGELTGTVCF-NH2 [DP3, double mutant E27K E38F of HVEM (26–38)]",showed inhibition
5,"Ac-KPACGELTGTVCE-NH2 [SP3, single mutant E27P of HVEM (26–38)]",showed inhibition

# Same assay, conditions: competitive ELISA, dose dependent; 1 mg/mL peptide, HVEM-biotin titrated; qualitative comparison
row,Molecule,"Inhibition of BTLA/HVEM binding, titration of peptide-BTLA with different concentrations of HVEM"
1,CC(=O)N[C@@H](Cc1ccc(O)cc1)C(=O)N[C@@H](CCCNC(=N)N)C(=O)N[C@H](C(=O)N[C@@H](CCCCN)C(=O)N1CCC[C@H]1C(=O)N[C@@H](C)C(=O)N[C@@H](CS)C(=O)NCC(=O)N[C@@H](CCC(=O)O)C(=O)N[C@@H](CC(C)C)C(=O)N[C@H](C(=O)NCC(=O)N[C@H](C(=O)N[C@H](C(=O)N[C@@H](CS)C(=O)N[C@@H](Cc1ccccc1)C(=O)N1CCC[C@H]1C(N)=O)C(C)C)[C@@H](C)O)[C@@H](C)O)C(C)C [DP2-E1] (Ac-YRVKPACGELTGTVCFP-NH2),higher affinity than the native ones
2,CC(=O)N[C@@H](CCC(=O)O)C(=O)N[C@@H](CO)C(=O)N[C@@H](CS)C(=O)N1CCC[C@H]1C(=O)N[C@@H](CCCCN)C(=O)N[C@@H](CS)C(=O)N[C@@H](CO)C(=O)N1CCC[C@H]1C(=O)NCC(=O)N[C@@H](Cc1ccc(O)cc1)C(=O)N[C@@H](CCCNC(=N)N)C(=O)N[C@H](C(=O)N[C@@H](CCCCN)C(=O)N1CCC[C@H]1C(=O)N[C@@H](C)C(=O)N[C@@H](CS)C(=O)NCC(=O)N[C@@H](CCC(=O)O)C(=O)N[C@@H](CC(C)C)C(=O)N[C@H](C(=O)NCC(=O)N[C@H](C(=O)N[C@H](C(=O)N[C@@H](CS)C(=O)N[C@@H](Cc1ccccc1)C(=O)N1CCC[C@H]1C(N)=O)C(C)C)[C@@H](C)O)[C@@H](C)O)C(C)C [DP2-E2] (Ac-ESCPKCSPGYRVKPACGELTGTVCFP-NH2),higher affinity than the native ones
3,CC(=O)N[C@@H](CCCCN)C(=O)N1CCC[C@H]1C(=O)N[C@@H](C)C(=O)N[C@@H](CS)C(=O)NCC(=O)N[C@@H](CCC(=O)O)C(=O)N[C@@H](CC(C)C)C(=O)N[C@H](C(=O)NCC(=O)N[C@H](C(=O)N[C@H](C(=O)N[C@@H](CS)C(=O)N[C@@H](Cc1ccccc1)C(N)=O)C(C)C)[C@@H](C)O)[C@@H](C)O [DP2] (Ac-KPACGELTGTVCF-NH2),showed the best inhibitory effects
4,"CC(=O)N[C@@H](CCC(=O)O)C(=O)N[C@@H](CO)C(=O)N[C@@H](CS)C(=O)N1CCC[C@H]1C(=O)N[C@@H](CCCCN)C(=O)N[C@@H](CS)C(=O)N[C@@H](CO)C(=O)N1CCC[C@H]1C(=O)NCC(=O)N[C@@H](Cc1ccc(O)cc1)C(=O)N[C@@H](CCCNC(=N)N)C(=O)N[C@H](C(=O)N[C@@H](CCCCN)C(=O)N[C@@H](CCC(=O)O)C(=O)N[C@@H](C)C(=O)N[C@@H](CS)C(=O)NCC(=O)N[C@@H](CCC(=O)O)C(=O)N[C@@H](CC(C)C)C(=O)N[C@H](C(=O)NCC(=O)N[C@H](C(=O)N[C@H](C(=O)N[C@@H](CS)C(=O)N[C@@H](CCC(=O)O)C(=O)N1CCC[C@H]1C(N)=O)C(C)C)[C@@H](C)O)[C@@H](C)O)C(C)C [P0-E2, reference compound] (Ac-ESCPKCSPGYRVKEACGELTGTVCEP-NH2; N-terminus and C-terminus assumed)",more potency than P0
5,"Ac-KEACGELTGTVCE-NH2 [P0, reference compound]",demonstrated little inhibition

# Target: T2, BTLA-Fc
# Experiment: Surface plasmon resonance (SPR), binding of peptides to BTLA
# Conditions: qualitative statement in running text
# Procedure: The SPR assay was conducted using Biacore T100 system with Sensor Chip CM5 (Cytiva, Marlborough, MA, USA). BTLA-Fc was conjugated to the chips with EDC/NHS coupling in NaAc buffer. The assay was performed in PBS buffer with 2% DMSO. The buffer calibration was conducted by mixing different volume of buffers with 1.5% or 2.8% DMSO. Various concentrations of the peptides were injected and flow through the chip at 30 µL/min. The signals were recorded and analyzed with either static (for fast dissociation) or kinetic (for slow dissociation) model.
row,Molecule,Binding to BTLA in words
1,CC(=O)N[C@@H](Cc1ccc(O)cc1)C(=O)N[C@@H](CCCNC(=N)N)C(=O)N[C@H](C(=O)N[C@@H](CCCCN)C(=O)N1CCC[C@H]1C(=O)N[C@@H](C)C(=O)N[C@@H](CS)C(=O)NCC(=O)N[C@@H](CCC(=O)O)C(=O)N[C@@H](CC(C)C)C(=O)N[C@H](C(=O)NCC(=O)N[C@H](C(=O)N[C@H](C(=O)N[C@@H](CS)C(=O)N[C@@H](Cc1ccccc1)C(=O)N1CCC[C@H]1C(N)=O)C(C)C)[C@@H](C)O)[C@@H](C)O)C(C)C [DP2-E1] (Ac-YRVKPACGELTGTVCFP-NH2),"binds slightly tighter than P0-E1, however weaker than DP2"
2,"Ac-KEACGELTGTVCE-NH2 [P0, reference compound]",can barely bind to BTLA

# Same assay, conditions: value as stated in running text
row,Molecule,Kd [mM]
1,CC(=O)N[C@@H](Cc1ccc(O)cc1)C(=O)N[C@@H](CCCNC(=N)N)C(=O)N[C@H](C(=O)N[C@@H](CCCCN)C(=O)N[C@@H](CCC(=O)O)C(=O)N[C@@H](C)C(=O)N[C@@H](CS)C(=O)NCC(=O)N[C@@H](CCC(=O)O)C(=O)N[C@@H](CC(C)C)C(=O)N[C@H](C(=O)NCC(=O)N[C@H](C(=O)N[C@H](C(=O)N[C@@H](CS)C(=O)N[C@@H](CCC(=O)O)C(=O)N1CCC[C@H]1C(N)=O)C(C)C)[C@@H](C)O)[C@@H](C)O)C(C)C [P0-E1] (Ac-YRVKEACGELTGTVCEP-NH2),9

# — publication PMC8234244, “Virtual Evolution of HVEM Segment for Checkpoint Inhibitor Discovery” (International Journal of Molecular Sciences, 2021)
